Holding throughout (assay): DTP human tumour cell line panel, 48 h
The subject of assay [1] is OVCAR-4 ovarian.
Assay [2] has as its system MALME-3M melanoma.
Assay [3] has as its system TK-10 renal.
Assay [4] concerns NCI-H522 lung.
The test system of assay [5] is KM12 colon.
Assay [6] deals with T-47D breast.
For assay [7], the system named is RXF 393 renal.
Assay [8] relates to UACC-257 melanoma.
Assay [9] deals with A498 renal.
Assay [10] has as its system SK-MEL-2 melanoma.

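Dose response: 5 concentrations. Exposure: 48 h. Format: 96-well plates. Endpoint: linear interpolation; highest concentration if not reached. At the GI50, growth is halved. The concentration for full growth arrest is given as TGI.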 Some results are limits rather than exact numbers.

Turning to `CN(C)c1ccc(/C=C2\N=C(c3ccccc3)N(c3cc(C(F)(F)F)ccc3Cl)C2=O)cc1`, the GI50 in [1] was > 69 µM; in [2], > 100 µM; in assay [3], > 100 µM; in assay [4] it was > 100 µM; in assay [5], > 100 µM; in assay [6], > 100 µM. The GI50 in assay [7], in assay [8], in assay [9] and in assay [10] was > 100 µM in each case. The TGI in [1], in assay [2], in [3], in assay [4], in assay [5] and in assay [6] was > 100 µM in each case. The TGI in assay [7], in assay [8], in [9] and in [10] was > 100 µM each time.

With `CN(C)c1nc(=NCc2ccco2)ss1`, the TGI in assay [1] was 51.7 µM; in assay [2], 54 µM; in assay [3], > 100 µM; in assay [4] it was 3.11 µM; in assay [5], > 55.7 µM; in assay [6] it was 20.1 µM. Moreover, the concentration for total growth inhibition (TGI) in assay [7] was 16.1 µM; in assay [8], > 79.4 µM; in [9], > 100 µM; in assay [10], > 64.8 µM.

Regarding `O=C(Nc1ccc(-n2ccc3c(NC(=O)c4ccccc4)ncnc32)cc1)c1cccc(C(F)(F)F)c1`, the GI50 in assay [1] is 4.31 µM; in [2], 9.75 µM; in [3], 8.57 µM; in [4] it was 1.87 µM; in assay [5] it was 0.626 µM; in assay [6], 5.82 µM. The GI50 in [7] was 3.39 µM; in assay [8], 10.2 µM; in [9], 3.51 µM; in [10], 1.47 µM. The TGI worked out at 31.2 µM in assay [1]; 26.1 µM in assay [2]; 27.2 µM in [3]; 20.6 µM in [4]; 16.7 µM in assay [5]; 30.6 µM in assay [6]. For the same molecule, the TGI in assay [7] is 19.9 µM; in assay [8], 32.1 µM; in assay [9], 23.2 µM; in [10] it was 13.5 µM.

For `C=C1C(=O)O[C@H]2[C@H]1CC/C(COC(=O)NCc1ccc(OC)cc1)=C\CC[C@@]1(C)O[C@@H]21`, the GI50 in assay [1] is 0.992 µM; in [2] it was 0.554 µM; in [3], 0.359 µM; in assay [4], 0.378 µM; in [5] it was 4.75 µM; in assay [6] it was 0.757 µM. Besides, the GI50 was 0.509 µM in [7], 0.766 µM in [8], 2.92 µM in assay [9] and 3.04 µM in [10]. Further, the TGI was 13.5 µM in assay [1]; 1.29 µM in [2]; 1.51 µM in [3]; 1.15 µM in assay [4]; 20.5 µM in [5]; 2.91 µM in assay [6]. Moreover, the TGI came to 1.07 µM in assay [7], 2.55 µM in assay [8], 20 µM in assay [9] and 10.4 µM in assay [10].

Consider `O=[N+]([O-])c1nccn1CC(O)CN1CCCCC1` (stereo not given), for which the TGI in [1], in assay [2], in [3], in [4], in [5] and in assay [6] was > 100 µM in each case. Further, the TGI in assay [7], in assay [8], in [9] and in assay [10] was > 100 µM in each case.

Regarding `Cn1c(=O)c2[nH]c(SCCN3CCOCC3)nc2n(C)c1=S`, the TGI in [1], in assay [2], in assay [3], in [4], in assay [5] and in assay [6] was > 100 µM each time. In addition, the TGI in assay [7], in [8], in assay [9] and in assay [10] was > 100 µM each time.

As for `CN(Cc1ccc(C(F)(F)F)cc1)CC(O)C(=O)Nc1ccc(Cl)cc1` (stereo not given), the GI50 in assay [1] was 1 µM; in assay [2] it was 1.37 µM; in [3], 1.74 µM; in [4] it was 1.5 µM; in [5], 1.54 µM; in [6] it was 1.38 µM. The GI50 is 1.51 µM in assay [7], 1.81 µM in [8], 1.38 µM in assay [9] and 1.93 µM in assay [10]. The TGI in assay [1] stood at 2.26 µM; in assay [2], 2.81 µM; in [3] it was 3.38 µM; in assay [4], 3.06 µM; in assay [5], 2.97 µM; in [6] it was 2.87 µM. The TGI in [7] is 2.96 µM; in assay [8] it was 3.38 µM; in assay [9], 2.79 µM; in [10] it was 3.62 µM.

Take `CCCn1cnc2c(SCC(=O)O)nc(N)nc21`: the concentration for total growth inhibition (TGI) in assay [1], in [2], in assay [3], in [4], in [5] and in assay [6] was > 100 µM throughout. The total growth inhibition concentration (TGI) in [7], in [8], in [9] and in assay [10] was > 100 µM each time.

As for `C[Si](C)(c1ccc(C(=O)O)cc1)c1ccc(C(=O)O)cc1`, the TGI in assay [1], in [2], in [3], in [4], in assay [5] and in [6] was > 100 µM throughout. For the same molecule, the total growth inhibition concentration (TGI) in assay [7], in assay [8], in assay [9] and in assay [10] was > 100 µM throughout.

`Cc1ccc2nc(-c3ccc(OCC(=O)N=Nc4c(O)[nH]c5ccccc45)cc3)[nH]c2c1`: the GI50 in assay [1] was 1.95 µM; in assay [2], 2.1 µM; in assay [3] it was 12.8 µM; in assay [4] it was 2 µM; in assay [5], 3.55 µM; in assay [6] it was 2.02 µM. Moreover, the GI50 was 7.94 µM in [7], 29.8 µM in assay [8], > 100 µM in [9] and 3.71 µM in [10]. For the same molecule, the TGI in assay [1] was 4.09 µM; in [2], 4.6 µM; in assay [3] it was 30.8 µM; in [4], 5.09 µM; in assay [5] it was 13.2 µM; in [6] it was 4.88 µM. Besides, the TGI was 24.4 µM in assay [7], > 100 µM in [8], > 100 µM in [9] and 14.7 µM in assay [10].

As for `O=C(/C=C/c1ccc(C(F)(F)F)cc1)Nc1ccc(C=C2c3ccccc3C(=O)c3ccccc32)cc1`, the GI50 is 5.26 µM in [1]; 8.91 µM in assay [2]; 23.6 µM in assay [3]; 2.36 µM in assay [4]; 2.33 µM in assay [5]; 3.39 µM in assay [6]. Also, the GI50 in assay [7] was 8.26 µM; in assay [8], 3.87 µM; in assay [9], 2.6 µM; in assay [10], 4.11 µM. In addition, the TGI in [1] was > 100 µM; in assay [2], > 100 µM; in assay [3] it was > 100 µM; in assay [4], 25.4 µM; in assay [5], 40.6 µM; in assay [6], 56.8 µM. The TGI was 60.4 µM in assay [7], > 100 µM in assay [8], 52.8 µM in [9] and 30.6 µM in assay [10].

Regarding `CCN(Cc1cc(F)ccc1F)c1ccc(CO)c(Cl)c1`, the GI50 in assay [1] was 0.129 µM; in [2], 13.3 µM; in assay [3] it was 0.0332 µM; in assay [4] it was 12.2 µM; in [5], 14.5 µM; in assay [6] it was 0.116 µM. The GI50 in [7] was 4.16 µM; in [8] it was 0.0904 µM; in [9], 0.0298 µM; in [10], 2.72 µM. In addition, the TGI turned out to be 1.15 µM in assay [1]; 27.2 µM in assay [2]; 0.199 µM in [3]; 29 µM in assay [4]; 30.8 µM in assay [5]; 1.9 µM in assay [6]. Further, the TGI in assay [7] came to 17.3 µM; in assay [8] it was 0.308 µM; in assay [9], 0.145 µM; in [10], 19.5 µM.

For `O=C1C2=C(C(=O)c3cnccc31)C1C=CC2CC1` (stereo not given), the GI50 in assay [1] was 0.316 µM; in assay [2], 2.12 µM; in assay [3] it was 5.54 µM; in assay [4] it was 1.96 µM; in assay [5], 2.65 µM; in [6], 0.374 µM. For the same molecule, the GI50 was 1.51 µM in assay [7], 1.72 µM in assay [8], 16.1 µM in [9] and 1.89 µM in assay [10]. For the same molecule, the TGI in assay [1] was determined as 1.15 µM; in [2], 4.45 µM; in assay [3] it was 10.4 µM; in [4], 4.1 µM; in assay [5] it was 6.66 µM; in assay [6], 1.5 µM. Moreover, the TGI in assay [7] is 2.85 µM; in [8], 3.17 µM; in [9], 29.7 µM; in [10], 3.52 µM.

As for `CC(C)c1nc(N(C)S(C)(=O)=O)nc(-c2ccc(F)cc2)c1/C=C/[C@@H](O)C[C@@H](O)CC(=O)O`, the GI50 in assay [1] was > 100 µM; in assay [2], > 100 µM; in assay [3], > 100 µM; in assay [4] it was 21.5 µM; in assay [5], > 100 µM; in [6] it was > 100 µM. Besides, the GI50 in assay [7] was 41.5 µM; in assay [8] it was > 100 µM; in [9], 3.57 µM; in assay [10] it was 26.2 µM. The concentration for total growth inhibition (TGI) in [1], in assay [2], in assay [3], in assay [4], in assay [5] and in assay [6] was > 100 µM throughout. For the same molecule, the TGI in [7] is > 100 µM; in assay [8], > 100 µM; in assay [9] it was 20.8 µM; in assay [10], > 100 µM.

`CCOc1ccc(/C(C=O)=C(\Cl)c2ccc(OC)cc2)cc1`: the TGI in assay [1], in assay [2], in [3], in assay [4], in assay [5] and in [6] was > 100 µM each time. Besides, the TGI in assay [7], in assay [8], in [9] and in assay [10] was > 100 µM each time.

For the molecule `Cc1cc(C)c2c(n1)sc1c(N)ncnc12`, the GI50 was > 25 µM in [1]; > 25 µM in assay [2]; 10.1 µM in [3]; > 25 µM in [4]; > 22.3 µM in assay [5]; > 25 µM in [6]. Further, the GI50 in assay [7] is 8.72 µM; in assay [8] it was > 25 µM; in assay [9] it was 4.9 µM; in [10], > 25 µM. The TGI in assay [1], in assay [2], in [3], in [4], in assay [5] and in [6] was > 25 µM each time. Besides, the concentration for total growth inhibition (TGI) in assay [7], in [8], in assay [9] and in assay [10] was > 25 µM each time.

In the case of `CN1CCN(CCOc2ccc(-c3cnc4c(-c5cccc(F)c5)cnn4c3)cc2)CC1`, the GI50 is 1.93 µM in [1]; 1.66 µM in assay [2]; 2.07 µM in assay [3]; 1.73 µM in assay [4]; 1.5 µM in assay [5]; 1.52 µM in [6]. For the same molecule, the GI50 in assay [7] was 1.66 µM; in [8] it was 2.33 µM; in assay [9], 1.76 µM; in [10], 1.98 µM. Also, the TGI in assay [1] was found to be 5.75 µM; in assay [2] it was 3.23 µM; in assay [3], 3.77 µM; in assay [4], 3.65 µM; in [5], 3.06 µM; in [6], 3.71 µM. In addition, the concentration for total growth inhibition (TGI) in assay [7] was 3.22 µM; in assay [8], 5.71 µM; in assay [9], 5.7 µM; in assay [10], 4.27 µM.

For the origin of these results see PubChem BioAssay (NCI).
